Measured values published in patent US20220030868A1, “FUNGICIDAL HALOMETHYL KETONES AND HYDRATES” (FMC CORPORATION, priority 2018, published 2022).

Experiments:
[1] = test system: Phakopsora pachyrhizi; assay: Test A: test suspension sprayed on soybean seedlings one day before inoculation with Phakopsora pachyrhizi spores (Asian soybean rust), visual disease rating; assay type: in vivo; details: 100 = 100% disease control, 0 = no control
In short: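 Compound dissolved in acetone (3% of final volume), then suspended at the stated ppm in 50/50 acetone/water with 250 ppm PEG400 surfactant; sprayed to run-off on soybean seedlings, inoculated with P. pachyrhizi spores next day. Held saturated at 22° C for 24 h, then 8 days at 22° C; visual rating as % disease control versus controls.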

[2] = test system: Puccinia recondita f. sp. tritici; assay: Test B: test suspension sprayed on wheat seedlings one day before inoculation with Puccinia recondita f. sp. tritici spores (wheat leaf rust), disease rating; assay type: in vivo; details: 100 = 100% disease control, 0 = no control
In short: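 Wheat seedlings were sprayed to run-off with compound suspended in 50/50 acetone/water containing 250 ppm PEG400, then inoculated with P. recondita f. sp. tritici spores the next day. Plants were held 24 h in saturated air at 20 °C, then 6 days in a growth chamber at 20 °C. Disease control was rated 0–100% relative to controls, with some entries run at 50 or 10 ppm.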

| Structure (SMILES) | Test A rating (disease control) ([1]; 10 ppm test suspension) [%] | Test B rating (disease control) ([2]; 10 ppm test suspension) [%] | further results |
| --- | --- | --- | --- |
| CCO/C(=C\Oc1ccc(C(=O)O)cc1)C(F)(F)F [compound 72] |  |  | Test A rating (disease control) ([1]; 50 ppm test suspension): 13%; Test B rating (disease control) ([2]; 50 ppm test suspension): 0% |
| COC(=O)c1cnn(Cc2ccc(OCC3(C(F)(F)F)OCCO3)cc2)c1 [compound 13] | 99 | 0 |  |
| CCO/C(=C\Oc1ccc(Cn2cc(C(F)(F)F)cn2)cc1)C(F)(F)F [compound 182] | 0 | 0 |  |
| O=C(OCc1ccc(F)c(F)c1)c1cnn(Cc2ccc(OCC(O)(O)C(F)(F)F)cc2)c1 [Compound 50] | 54 | 91 |  |
| CCOC(=O)c1ccnn1Cc1ccc(OCC(O)(O)C(F)(F)F)cc1 [Compound 234] |  |  | Test A rating (disease control) ([1]; 50 ppm test suspension): 100%; Test B rating (disease control) ([2]; 50 ppm test suspension): 92% |
| CCOC(=O)c1cn(Cc2ccc(O/C=C(\OCC)C(F)(F)F)cc2)cn1 [compound 153] | 100 | 0 |  |
| CCO/C(=C\Oc1ccc(Cn2ncnc2SC)cc1)C(F)(F)F [Compound 260] | 0 | 0 |  |
| CCO/C(=C\Oc1ccc(Cn2cc(C(=O)OCCOC)cn2)cc1)C(F)(F)F [compound 222] | 100 | 0 |  |
| CCO/C(=C\Oc1ccc(CS(=O)(=O)CC)cc1)C(F)(F)F [compound 62] | 0 | 0 |  |
| CCO/C(=C\Oc1ccc(C(=O)OC)cc1)C(F)(F)F [compound 230] | 0 | 0 |  |
| CN(C)C(=O)c1cnn(Cc2ccc(OCC3(C(F)(F)F)OCCO3)cc2)c1 [compound 198] | 0 | 0 |  |
| FC(F)(F)C1(COc2ccc(Cc3ccccc3)cc2)OCCO1 [compound 192] | 0 | 0 |  |
| CCO/C(=C\Oc1ccc(Cn2cccn2)cc1)C(F)(F)F [compound 151] | 0 | 0 |  |
| O=C(OCc1ccccc1)c1cnn(Cc2ccc(OCC(O)(O)C(F)(F)F)cc2)c1 [Compound 47] |  |  | Test A rating (disease control) ([1]; 50 ppm test suspension): 100%; Test B rating (disease control) ([2]; 50 ppm test suspension): 95% |
| O=Cc1ccc(OCC(O)(O)C(F)(F)F)cc1 [Compound 177] |  |  | Test A rating (disease control) ([1]; 50 ppm test suspension): 100%; Test B rating (disease control) ([2]; 50 ppm test suspension): 89% |
| O=C(NCC(F)(F)F)c1cnn(Cc2ccc(OCC3(C(F)(F)F)OCCO3)cc2)c1 [compound 197] | 0 | 0 |  |
| CCOC(=O)c1cnn(Cc2ccc(C(O)CC(O)(O)C(F)(F)F)cc2)c1 (stereo not drawn) [Compound 51] | 0 | 0 |  |
| CCOC(=O)c1cnn(Cc2ccc(OC(F)(F)C3(C(F)(F)F)OCCO3)cc2)c1 [compound 319] |  |  | Test A rating (disease control) ([1]; 50 ppm test suspension): 100%; Test B rating (disease control) ([2]; 50 ppm test suspension): 41% |
| CCO/C(=C\Oc1cccc(Cn2cc(C(=O)OCCCCl)cn2)c1)C(F)(F)F [compound 338] | 100 | 0 |  |
| O=C(OCc1ccc(F)c(F)c1)c1cnn(Cc2ccc(OCC3(C(F)(F)F)OCCO3)cc2)c1 [compound 18] | 100 | 0 |  |
| CON(Cc1ccc(OCC2(C(F)(F)F)OCCO2)cc1)C(=O)C1CC1 [compound 236] | 75 | 0 |  |
| CCOC(=O)c1cnn(CCc2ccc(OCC3(C(F)(F)F)OCCO3)cc2)c1 [compound 133] | 79 | 0 |  |
| CCO/C(=C\Oc1ccc(Cn2ccc(C)n2)cc1)C(F)(F)F [compound 158] | 0 | 0 |  |
| CCOC(=O)c1cnn(Cc2cc(O/C=C(\OCC)C(F)(F)F)ccc2F)c1 [compound 302] |  |  | pest or weed control at 50 ppm ([1]; Phakopsora pachyrhizi, 50 ppm test suspension): 99%; pest or weed control at 50 ppm ([2]; 50 ppm test suspension): 0% |
| CCOC(=O)c1cnn(Cc2ccc(O/C=C(\OCC)C(F)(F)F)cc2)n1 [compound 119] | 97 | 0 |  |
| CCO/C(=C\Oc1ccc(COC(N)=O)cc1)C(F)(F)F [compound 193] | 0 | 86 |  |
| CCO/C(=C\Oc1ccc(Cn2ccc(C(=O)OCC(C)=O)n2)cc1)C(F)(F)F [compound 359] | 100 | 0 |  |
